Reference: article PMC7587356, “High-Throughput Screening for Inhibitors of the SARS-CoV-2 Protease Using a FRET-Biosensor” (Molecules, 2020)
Counter-ions that a name gives are not always drawn. Like-named read-outs stand apart in the source and are kept apart here.

Biological target: SARS-CoV-2 3CLpro (Severe acute respiratory syndrome coronavirus 2, UniProt P0DTD1)
Experiment: biochemical
Type: biochemical
Set-up: Replicate_1 / Replicate_2 / mean / mean (LOPAC_screen_w_protease): unit not given here
Conditions: for inhibition at 5 µM: 4 h
[1] = sheet LOPAC_screen_w_protease, primary screen with protease, compound at 5 µM, mean of two replicates, read-out: mean
[2] = sheet LOPAC_screen_w_protease, primary screen with protease, compound at 5 µM, replicate 1, read-out: Replicate_1
[3] = sheet LOPAC_screen_w_protease, primary screen with protease, compound at 5 µM, replicate 2, read-out: Replicate_2
[4] = LOPAC1280 primary screen with protease, 5 µM compound, replicate 1, read-out: Replicate_1 (LOPAC_screen_w_protease)
[5] = LOPAC1280 primary screen with protease, 5 µM compound, replicate 2, read-out: Replicate_2 (LOPAC_screen_w_protease)
[6] = sheet LOPAC_screen_w_protease, primary screen with protease, 5 µM, mean of two replicates, read-out: mean
[7] = sheet LOPAC_screen_w_protease, primary screen with protease, 5 µM, replicate 1, read-out: Replicate_1
[8] = sheet LOPAC_screen_w_protease, primary screen with protease, 5 µM, replicate 2, read-out: Replicate_2
[9] = sheet LOPAC_screen_w_protease, LOPAC1280 primary screen at 5 µM, with protease, mean of the two replicates, read-out: mean
[10] = sheet LOPAC_screen_w_protease, LOPAC1280 primary screen at 5 µM, with protease, replicate 1, read-out: Replicate_1
[11] = sheet LOPAC_screen_w_protease, LOPAC1280 primary screen at 5 µM, with protease, replicate 2, read-out: Replicate_2
[12] = read-out: Replicate_1 (LOPAC_screen_w_protease)
[13] = read-out: Replicate_2 (LOPAC_screen_w_protease)

With `N[C@@H]1C[C@H]1c1ccccc1` [Tranylcypromine hydrochloride] the Replicate_1 was 0.4955, the Replicate_2 was 0.8775 and the mean was 0.6865.
In the case of `O=c1n(CCCN2CCN(c3cccc(Cl)c3)CC2)nc2ccccn12` [Trazodone hydrochloride], the inhibition at 5 µM [1] is reported as 2.86%, the inhibition at 5 µM [2] is reported as 3.03% and the inhibition at 5 µM [3] is reported as 2.69%.
In the case of `COc1cc2c(cc1OC)-c1c/c(=N\c3c(C)cc(C)cc3C)n(C)c(=O)n1CC2` [Trequinsin hydrochloride], the inhibition at 5 µM [4] is reported as 1.97%, the inhibition at 5 µM [5] is reported as 2% and the “mean (LOPAC_screen_w_protease)” value (LOPAC1280 primary screen with protease, 5 µM compound, mean of the two replicates) is reported as 1.986.
Work on `Nc1nc(N)c2nc(-c3ccccc3)c(N)nc2n1` [Triamterene] yielded an inhibition at 5 µM [6] of -0.222%, an inhibition at 5 µM [7] of 2.19% and an inhibition at 5 µM [8] of -2.63%.
`CN1CCN(CCCN2c3ccccc3Sc3ccc(C(F)(F)F)cc32)CC1` [Trifluoperazine dihydrochloride] showed an inhibition at 5 µM [6] of 0.187%, an inhibition at 5 µM [7] of 0.0814% and an inhibition at 5 µM [8] of 0.293%.
`O=C(CCCN1CCC(O)(c2cccc(C(F)(F)F)c2)CC1)c1ccc(F)cc1` [Trifluperidol hydrochloride] was tested, and the inhibition at 5 µM [4] was -0.00744%, the inhibition at 5 µM [5] was 3.06% and the “mean (LOPAC_screen_w_protease)” value (LOPAC1280 primary screen with protease, 5 µM compound, mean of two replicates) was 1.525.
Molecule `CN(C)CCCN1c2ccccc2Sc2ccc(C(F)(F)F)cc21` [Triflupromazine hydrochloride] has an inhibition at 5 µM [9] of 0.692%, an inhibition at 5 µM [10] of 1.65% and an inhibition at 5 µM [11] of -0.271%.
`OC(CCN1CCCCC1)(c1ccccc1)C1CCCCC1` (centres unmarked) [Trihexyphenidyl hydrochloride] was tested, and the inhibition at 5 µM [12] was 1.61% and the inhibition at 5 µM [13] was 1.86%.
For `COc1cc(Cc2cnc(N)nc2N)cc(OC)c1OC` [Trimethoprim], the inhibition at 5 µM (read-out: Replicate_1) was -0.343%, the inhibition at 5 µM (read-out: Replicate_2) was -3.24% and the inhibition at 5 µM (read-out: mean) was -1.79%.
`CC(CN(C)C)CN1c2ccccc2CCc2ccccc21` (centres unmarked) [Trimipramine maleate] gave an inhibition at 5 µM (sheet LOPAC_screen_w_protease, primary screen with protease, mean of two replicates, read-out: mean) of 2.36%, an inhibition at 5 µM (sheet LOPAC_screen_w_protease, primary screen with protease, replicate 1, read-out: Replicate_1) of 3.17% and an inhibition at 5 µM (sheet LOPAC_screen_w_protease, primary screen with protease, replicate 2, read-out: Replicate_2) of 1.55%.
In the case of `Cc1ccc(/C(=C\CN2CCCC2)c2ccccn2)cc1.Cl` [Triprolidine hydrochloride], the mean (sheet LOPAC_screen_w_protease, primary screen with protease, 5 µM, mean of two replicates) is reported as 0.01953, the Replicate_1 (sheet LOPAC_screen_w_protease, primary screen with protease, 5 µM, replicate 1) is reported as 0.1702 and the Replicate_2 (sheet LOPAC_screen_w_protease, primary screen with protease, 5 µM, replicate 2) is reported as -0.1311.
Molecule `NCCc1c[nH]c2ccccc12` [Tryptamine hydrochloride] has an inhibition at 5 µM [9] of 0.461%, an inhibition at 5 µM [10] of 0.957% and an inhibition at 5 µM [11] of -0.0349%.
In the case of `CC(C)(C)NCC(O)c1ccccc1Cl` (centres unmarked) [Tulobuterol hydrochloride], the inhibition at 5 µM (sheet LOPAC_screen_w_protease, LOPAC1280 at 5 µM, mean of two replicates, read-out: mean) is reported as 0.895%, the inhibition at 5 µM (sheet LOPAC_screen_w_protease, LOPAC1280 at 5 µM, replicate 1, read-out: Replicate_1) is reported as 2.46% and the inhibition at 5 µM (sheet LOPAC_screen_w_protease, LOPAC1280 at 5 µM, replicate 2, read-out: Replicate_2) is reported as -0.673%.
Work on `N#CC(C#N)=Cc1ccc(O)c(O)c1` [Tyrphostin 23] yielded an inhibition at 5 µM [1] of 3.07%, an inhibition at 5 µM [2] of 2.09% and an inhibition at 5 µM [3] of 4.04%.
`N#CC(C#N)=Cc1cc(O)c(O)c(O)c1` [Tyrphostin 25] showed an inhibition at 5 µM (sheet LOPAC_screen_w_protease, primary screen at 5 µM, mean of two replicates, read-out: mean (LOPAC screen with protease)) of 8.52%, an inhibition at 5 µM (sheet LOPAC_screen_w_protease, primary screen at 5 µM, replicate 1, read-out: Replicate_1 (LOPAC screen with protease)) of 10.5% and an inhibition at 5 µM (sheet LOPAC_screen_w_protease, primary screen at 5 µM, replicate 2, read-out: Replicate_2 (LOPAC screen with protease)) of 6.57%.
For `CC(C)(C)c1cc(C=C(C#N)C#N)cc(C(C)(C)C)c1O` [Tyrphostin A9], the “mean (LOPAC_screen_w_protease)” value was 2.02, the inhibition at 5 µM [12] was 2.73% and the inhibition at 5 µM [13] was 1.31%.
`COc1cc(C=C(C#N)C#N)cc(O)c1O` [Tyrphostin AG 34] showed a mean (sheet LOPAC_screen_w_protease, primary screen of LOPAC1280 at 5 µM with protease, mean of the two replicates) of 3.625, a Replicate_1 (sheet LOPAC_screen_w_protease, primary screen of LOPAC1280 at 5 µM with protease, replicate 1) of 3.8503 and a Replicate_2 (sheet LOPAC_screen_w_protease, primary screen of LOPAC1280 at 5 µM with protease, replicate 2) of 3.4006.
With `N#CC(C#N)=C(N)/C(C#N)=C/c1ccc(O)cc1` [Tyrphostin AG 112] the mean (sheet LOPAC_screen_w_protease, primary screen with protease, mean of two replicates) was 2.497, the Replicate_1 (sheet LOPAC_screen_w_protease, primary screen with protease, replicate 1) was 2.949 and the Replicate_2 (sheet LOPAC_screen_w_protease, primary screen with protease, replicate 2) was 2.046.
